Measured values published in paper PMC12428754, “Testing Strategies for Metabolite-Mediated Neurotoxicity” (International Journal of Molecular Sciences, 2025).
Like-named read-outs stand apart in the source and are kept apart here.

Columns and labels:
[1] = for extent of metabolite formation / cofactor (NADPH) dependence of metabolite formation: result in words; for cofactor (NADPH) dependence of metabolite formation: human liver microsomes ± NADPH; for metabolite formation over time: samples every 30 min for 2 h
Procedure: Parent compounds were incubated at final concentrations of either (a) 5 µM or (b) 50 µM (for chlorfenapyr) with pooled human liver microsomes (HLM; mixed gender, n = 150; BioIVT; West Sussex, UK) at corresponding protein concentrations of (a) 0.52 mg/mL or (b) 5.2 mg/mL. Incubations were performed in the absence or presence of NADPH at final concentrations of (a) 1 mM or (b) 10 mM, respectively, using a thermostated orbital shaker at 37 °C and 150 rpm. Reactions were terminated at designated time points by the addition of acetonitrile/methanol (3:1, v/v). Samples were then centrifuged at 10,000× g for 10 min, and the resulting supernatants were analysed by LC-MS/MS.
All analytes were measured using an Acquity UPLC H-Class system coupled to a Xevo TQ-S micro mass spectrometer (Waters). Chromatographic separation was performed on an Acquity UPLC BEH C18 column (2.1 × 50 mm, 1.7 µm) with a mobile phase consisting of 0.1% formic acid in water (A) and acetonitrile (B). Unless otherwise stated, the column was maintained at 30 °C and operated at a flow rate of 0.4 mL/min. The standard gradient was 95% A from 0 to 1.0 min, decreased to 2% A by 1.5 min, held until 4.0 min, returned to 95% A at 4.3 min, and held until 5.0 min. […] The mass spectrometer operated in electrospray ionisation (ESI) mode. Compound-specific MRM transitions, cone voltages, and collision energies for all analytes are listed in Supplementary Table S2.
Int. J. Mol. Sci. 2025, 26, x FOR PEER REVIEW 3 of 5
Supplementary Figure S3: Quantification of specific metabolite formation from selected parent/metabolite pairs in a human liver microsomes (HLM) assay. Parent compounds (PAR) were incubated at a concentration of 5 µM (50 µM for chlorfenapyr) with HLM in the absence (dashed line, open symbols) or presence of NADPH (solid lines, closed symbols). Samples were taken every 30 min for 2 h (+NADPH) or at 2 h only (- NADPH). The remaining fraction of the PAR was quantified for each sample. Additionally, one key metabolite (MET) was measured. Its amount is expressed as fraction of PAR converted to MET, assuming an equimolar PAR to MET reaction, 100 % indicates a complete conversion. The middle-dashed line indicates a metabolite formation of at least 10% of PAR. Data are means of two measurements n.d. = not detected.
(1 picture or pasted object on this page, not shown here)

LUHMES cells [2] = experiment: MitoMet (UKN4b) neurite outgrowth assay; assay type: cell-based, human; conditions: for IC25: Homo sapiens, benchmark response 25%, neurite area, 24 h exposure, three independent experiments, read-out: BMC25 neurite outgrowth; for fold change between BMC25 values of parent and metabolite (potency ratio, parent divided by metabolite): listed under the metabolite, >1 = metabolite more potent
Procedure: Figure 1 (A) A strategy scheme to assess metabolite-mediated hazard in NAMs used for neurotoxicity or developmental neurotoxicity. Parent and metabolite compounds are tested separately in the respective assay. This strategy is applicable when there is prior knowledge of metabolite formation. A decision rule based on the relative toxicities (X) of the parent and metabolite may be applied to decide whether next-generation risk assessment (NGRA) should be applied to the metabolite. The value of X may be defined according to the problem formulation and the NAM used. (B) An assay scheme of the neurite outgrowth assay used here for exemplification: Proliferating LUHMES cells were replated one day before differentiation was initiated (day −1). After two days (day 2) in differentiation medium, the cells were replated into assay format (96-well). At this point, neurite growth was re-initiated. The cells were treated with toxicants 1 h after replating. Neurite outgrowth and viability were determined 24 h later, using automated high content imaging. (C) Comparison of neurite outgrowth of cultures treated with bromethalin and desmethyl-bromethalin one exemplary parent/metabolite pair (chemical structures shown). […] The curves are based on data from three independent experiments and were fitted using a four-parameter Hill function. Data points shown are arithmetic means of data from independent experiments ±SEM. In each independent experiment, the technical replicates were measured and averaged. A benchmark response (BMR) of 25% was used as specified in the detailed assay description, and the respective benchmark concentration (BMC25) was determined. […] (D) Microscopic images of calcein-stained LUHMES cells. Similar images are used for neurite quantification. Treatment with 40 nM of the parent (left) or metabolite (right). The scale bar in orange corresponds to 50 µm. […] It stands under panel C and to the right of panel D, and was assigned to C.
(§1) The MitoMet neurite outgrowth assay was performed as previously described. In brief, all cell culture dishes and flasks were pre-coated with 50 μg/mL poly-l-ornithine (PLO) and 1 μg/mL fibronectin. Proliferating LUHMES cells were maintained in AdvDMEM/F12 containing L-glutamine (2 mM), N2 supplement (1x), and FGF (40 ng/mL). For pre-differentiation, the cells were replated at a density of 46,000 cells/cm^2 one day prior to the induction of differentiation (defined as the day of differentiation, Day −1). Differentiation was initiated by exchanging the culture medium for AdvDMEM/F12 supplemented with L-glutamine (2 mM), N2 supplement (1x), dibutyryl-cAMP (1 mM), tetracycline (1 µg/mL), and GDNF (2 ng/mL). After two days of differentiation (Day 2), the cells were replated (100,000 cells/cm^2) into 96-well plates. The final assay medium consisted of glucose-free AdvDMEM/F12 supplemented with galactose (18 mM), L-glutamine (2 mM), and tetracycline (1 µg/mL). One hour after replating, the cells were treated with a 10× concentrated stock solution of the test compound. Neurite outgrowth and viability were determined 24 h later, using automated high content imaging.
The image acquisition and analysis were conducted according to established protocols. The cells were stained with Hoechst H-33342 (1 µg/mL) to visualise nuclei and calcein-AM (1 µM) to label viable cell structures. Fluorescent images were acquired using an automated imaging system.

LUHMES cells [3] = tested on: LUHMES cells
Procedure: Figure 4 A strategy to incorporate metabolic competence into in vitro DNT testing methods. (A) A schematic overview of a sequential metabolism and testing approach. The “metabolisation module” uses hepatic post-mitochondrial fractions (S9) to generate metabolite mixtures in the presence or absence of cofactors (NADPH, glucose-6-phosphate, MgCl2). These metabolite mixtures are tested in the “testing module” in a concentration-dependent manner after serial pre-dilutions. Metabolite mixtures are added as a fraction of 10% to the media volume of the “testing module”. The testing module may be a cell-based neurotoxicity (NT) or developmental neurotoxicity (DNT) assay, such as the neurite outgrowth or migration assay. Here, the Mito-Met neurite outgrowth assay, as in Figure 1, was used. […] The curves represent data from three independent experiments and were fitted using a four-parameter Hill function. […] The data represent three independent experiments. The indicated concentrations are “testing module” concentrations.
To further evaluate our modular pre-activation strategy for identifying metabolite-mediated hazard, we tested a broader panel of compounds. For each compound (parent), a single concentration was used in the metabolisation module. The metabolite mixtures were generated in the absence or presence of NADPH. These metabolite mixtures were serially diluted and assessed using the MitoMet neurite outgrowth assay. As a measure of potency, EC25 values were determined, and potency ratios were calculated to compare the effects of NADPH-dependent versus NADPH-independent metabolism.
Figure 5 The effect of NADPH-dependent hepatic metabolism on the DNT of selected compounds. (A) A strategy scheme to assess the effect of metabolic enzymes on the outcome of cell-based DNT assays. Metabolite mixtures are generated using the NADPH-(in)dependent metabolic activity of S9. NADPH-independent metabolism is shown in green (light grey). NADPH-dependent metabolism is shown in red (dark grey). […] (B–F) The concentration-dependent effect of metabolite mixtures on neurite outgrowth was measured as in Figure 1, with the following modifications: red-fluorescent-protein (RFP)-expressing LUHMES cells were used. As the assay endpoint, the RFP fluorescence of neurites was used instead of calcein staining. The curves represent data from three independent experiments and were fitted using a four-parameter Hill function. From this, an EC25 was calculated. Bold numbers indicate the fold changes between EC25 values of the NADPH-(in)dependent metabolite mixtures, with the direction of the arrow reflecting the shift in sensitivity. Note that the x-axes indicate nominal concentrations of parent compounds. […] Similar images were used for neurite quantification. The right image (red frame) of the pairs was obtained with NADPH. The black arrowheads above the curves indicate the experimental conditions used to record images. The scale bar in orange corresponds to 50 µm.
as §1, with “plates.” for “plates. The final assay medium consisted of glucose-free AdvDMEM/F12 supplemented with galactose (18 mM), L-glutamine (2 mM), and tetracycline (1 µg/mL). One hour after replating, the cells were treated with a 10× concentrated stock solution of the test compound. Neurite outgrowth and viability were determined 24 h later, using automated high content imaging.”

[4] = human liver microsomes, listed under the metabolite

Structure (SMILES): C[C@H]1[C@H](OC(=O)CCC(=O)O)O[C@@H]2O[C@@]3(C)CC[C@H]4[C@H](C)CC[C@@H]1[C@@]24OO3 [Artesunate]
- extent of metabolite formation ([1]; human liver microsomes): completely converted
- IC25 (LUHMES cells [2]): 3.4 µM

Structure (SMILES): CCCCNC(=O)n1c(NC(=O)OC)nc2ccccc21 [Benomyl]
- IC25 (LUHMES cells [2]): 3.7 µM

Structure (SMILES): COc1ccc2cc3[n+](cc2c1OC)CCc1cc2c(cc1-3)OCO2 [Berberine]
- fold change between EC25 values of NADPH-(in)dependent metabolite mixtures (detoxification) (LUHMES cells [3]): 5 x
- effect of metabolisation in the presence of NADPH on toxicity (LUHMES cells [3]; result in words): reduced

Structure (SMILES): O=P1(N(CCCl)CCCl)NCCCO1 (stereo not shown) [Cyclophosphamide]
- inhibition of neurite outgrowth without preincubation (LUHMES cells [3]; 100 µM, 50 µg/mL S9, no preincubation): No inhibition of neurite outgrowth
- reduction of neurite outgrowth (LUHMES cells [3]; 100 µM, 50 µg/mL S9, with NADPH, 2 h preincubation): approximately 90%
- neurite toxicity at low S9 concentrations (LUHMES cells [3]; 100 µM, S9 <10 µg/mL, 2 h incubation): did not lead to neurite toxicity
- fold change between EC25 values of NADPH-independent and NADPH-dependent metabolite mixtures (toxification) (LUHMES cells [3]; rat liver S9 50 µg/mL in testing module, 2 h preincubation, RFP-LUHMES, toxicity increased with NADPH): > 25 x

Structure (SMILES): C[C@H]1[C@@H](O)O[C@@H]2O[C@@]3(C)CC[C@H]4[C@H](C)CC[C@@H]1[C@@]24OO3 [Dihydroartemisinin]
- cofactor (NADPH) dependence of metabolite formation [1]: largely independently of NADPH
- metabolite formation over time [1, 4]: time-dependent increase in metabolite formation
- IC25 (LUHMES cells [2]): 1.2 µM
- fold change between BMC25 values of parent and metabolite (potency ratio, parent divided by metabolite) (LUHMES cells [2]): 3 fold

Structure (SMILES): COC(=O)Nc1nc2ccc(Sc3ccccc3)cc2[nH]1 [Fenbendazole]
- IC25 (LUHMES cells [2]): 0.047 µM

Structure (SMILES): O=C(CCC[n+]1ccc(-c2ccc(Cl)cc2)cc1)c1ccc(F)cc1 [HPP+, haloperidol pyridinium ion]
- extent of metabolite formation ([1]; human liver microsomes): only trace amounts
- metabolite formation over time [1, 4]: time-dependent increase in metabolite formation
- IC25 (LUHMES cells [2]): 7.1 µM
- fold change between BMC25 values of parent and metabolite (potency ratio, parent divided by metabolite) (LUHMES cells [2]): 4 fold

Structure (SMILES): O=C(CCCN1CCC(O)(c2ccc(Cl)cc2)CC1)c1ccc(F)cc1 [Haloperidol]
- IC25 (LUHMES cells [2]): > 33 µM

Structure (SMILES): O=P1(NCCCl)OCCCN1CCCl (stereo not shown) [Ifosfamide]
- fold change between EC25 values of NADPH-independent and NADPH-dependent metabolite mixtures (toxification) (LUHMES cells [3]): > 10 x

Structure (SMILES): CNC(C)Cc1ccc2c(c1)OCO2 (stereo not shown) [MDMA, methylenedioxymethamphetamine]
- IC25 (LUHMES cells [2]): > 100 µM

Structure (SMILES): C[n+]1ccc(-c2ccccc2)cc1 [MPP+, 1-methyl-4-phenylpyridinium]
- cofactor (NADPH) dependence of metabolite formation [1]: largely independently of NADPH
- metabolite formation over time [1, 4]: time-dependent increase in metabolite formation
- conversion rate of parent to metabolite ([1]; human liver microsomes, up to 2 h, listed under the metabolite): approximately 10%
- IC25 (LUHMES cells [2]): 0.12 µM

Structure (SMILES): CN1CC=C(c2ccccc2)CC1 [MPTP, 1-methyl-4-phenyl-tetrahydropyridine]
- IC25 (LUHMES cells [2]): > 100 µM

Structure (SMILES): CC(N)Cc1ccc(O)c(O)c1 (stereo not drawn) [α-Methyldopamine]
- IC25 (LUHMES cells [2]): 16 µM
- fold change between BMC25 values of parent and metabolite (potency ratio, parent divided by metabolite) (LUHMES cells [2]): > 6 fold
